In assay [1] the target is T1, ASAL (from S. aureus) (Staphylococcus aureus, UniProt Q2FIB5).
T1 construct: gene argH; immobilised on CM5 chip
T1 sequence (Q2FIB5 1-459): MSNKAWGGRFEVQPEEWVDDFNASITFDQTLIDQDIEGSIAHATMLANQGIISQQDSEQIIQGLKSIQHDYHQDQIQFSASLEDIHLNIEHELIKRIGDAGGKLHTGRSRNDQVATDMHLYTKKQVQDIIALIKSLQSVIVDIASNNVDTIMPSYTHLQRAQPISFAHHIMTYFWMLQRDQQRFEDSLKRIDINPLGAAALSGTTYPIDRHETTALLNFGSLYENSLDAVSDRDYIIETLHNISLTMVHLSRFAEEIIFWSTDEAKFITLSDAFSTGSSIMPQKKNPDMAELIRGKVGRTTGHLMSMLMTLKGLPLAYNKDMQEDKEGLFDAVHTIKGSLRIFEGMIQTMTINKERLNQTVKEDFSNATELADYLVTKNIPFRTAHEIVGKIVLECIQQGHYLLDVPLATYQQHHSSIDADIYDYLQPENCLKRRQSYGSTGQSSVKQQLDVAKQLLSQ
Put plainly: surface plasmon resonance (Biacore T200, CM5 chip, immobilised protein). Conditions: read-out: affinity constant. Type of assay: binding. A general note: SPR reads the build-up and loss of mass on a sensor chip optically.

Assay [2] concerns the target T2, PPARδ (Homo sapiens, UniProt Q03181).
T2 construct: gene PPARD; apparently endogenous in HEK293T cells (no transfection told); Western blot read-out
T2 sequence (Q03181 1-441): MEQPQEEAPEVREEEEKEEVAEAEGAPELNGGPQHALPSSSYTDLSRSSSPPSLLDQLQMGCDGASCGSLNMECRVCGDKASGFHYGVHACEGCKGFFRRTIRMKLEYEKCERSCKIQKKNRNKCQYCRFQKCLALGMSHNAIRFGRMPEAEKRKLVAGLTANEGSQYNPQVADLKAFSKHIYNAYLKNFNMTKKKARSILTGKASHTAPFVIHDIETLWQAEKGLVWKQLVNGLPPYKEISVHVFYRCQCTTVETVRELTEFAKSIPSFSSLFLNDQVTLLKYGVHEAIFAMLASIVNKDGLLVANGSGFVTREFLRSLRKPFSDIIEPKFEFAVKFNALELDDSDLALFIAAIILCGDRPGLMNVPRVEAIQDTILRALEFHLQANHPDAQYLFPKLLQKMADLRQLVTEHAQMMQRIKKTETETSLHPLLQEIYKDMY
Put plainly: cellular thermal shift assay (CETSA), Western blot. Type of assay: cell-based. The following applies: HEK293T cells. Background: Immunoblotting shows a protein as a band on a membrane.

For assay [3], the target named is T3, FFA1 (Homo sapiens, UniProt O14842).
T3 construct: gene FFAR1; apparently endogenous in HEK293T cells (no transfection told); Western blot read-out
T3 sequence (O14842 whole entry): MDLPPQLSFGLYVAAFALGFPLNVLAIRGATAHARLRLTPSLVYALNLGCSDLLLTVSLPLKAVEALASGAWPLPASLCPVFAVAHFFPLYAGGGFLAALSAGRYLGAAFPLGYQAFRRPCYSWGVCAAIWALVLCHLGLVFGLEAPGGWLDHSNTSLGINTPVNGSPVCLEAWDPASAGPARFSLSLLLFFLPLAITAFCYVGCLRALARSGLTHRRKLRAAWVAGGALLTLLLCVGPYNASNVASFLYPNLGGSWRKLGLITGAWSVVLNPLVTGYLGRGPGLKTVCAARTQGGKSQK
Nature of the assay: cellular thermal shift assay (CETSA), Western blot. Conditions: HEK293T cells. Type of assay: cell-based.

As to `Cc1nc(-c2ccc(C(F)(F)F)cc2)sc1COc1ccc2c(c1)OC[C@H]2CC(=O)O` [ZLY032], the Kd in assay [1] is 10.9 µM. The “cellular thermal shift assay (CETSA), Western blot” value was “ZLY032 had direct binding ability with FFA1 and PPARδ (Figure S11, Supporting Information)” in assay [2]; “ZLY032 had direct binding ability with FFA1 and PPARδ (Figure S11, Supporting Information)” in assay [3].

These data come from paper PMC12499452, “The Multitarget Compound ZLY032 Achieves Treatment of Chronic Wounds” (Advanced Science, 2025).
